Experimental data reported in ChEMBL document CHEMBL1201862, “PubChem BioAssay data set” (2004).
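Dose response: 5 concentrations. Exposure: 48 h. Format: 96-well plates. Endpoint: linear interpolation; highest concentration if not reached. Here, GI50 denotes the concentration required for 50% inhibition of growth.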 Calls of active or inactive are those of the source. No stated cut-off is given here; in the data, active = GI50 up to about 1.1 µM and inactive = higher.

Tests used:
Test in all cases: NCI-60 cell line screen, 48 h
[1] = test system: 786-0
[2] = test system: A498
[3] = test system: A549
[4] = test system: ACHN
[5] = test system: BT-549
[6] = test system: CAKI-1
[7] = test system: CCRF-CEM
[8] = test system: COLO 205
[9] = test system: DU-145
[10] = test system: EKVX
[11] = test system: HCC 2998
[12] = test system: HCT-116
[13] = test system: HCT-15
[14] = test system: HL-60
[15] = test system: HOP-62
[16] = test system: HOP-92
[17] = test system: HT-29
[18] = test system: Hs-578T
[19] = test system: IGROV-1
[20] = test system: K562
[21] = test system: KM12
[22] = test system: LOX IMVI
[23] = test system: M14
[24] = test system: MCF7
[25] = test system: MDA-MB-231
[26] = test system: MDA-MB-435
[27] = test system: MDA-N
[28] = test system: MOLT-4
[29] = test system: Malme-3M
[30] = test system: NCI-H226
[31] = test system: NCI-H23
[32] = test system: NCI-H460
[33] = test system: NCI-H522
[34] = test system: NCI/ADR-RES
[35] = test system: OVCAR-3
[36] = test system: OVCAR-4
[37] = test system: OVCAR-5
[38] = test system: OVCAR-8
[39] = test system: PC-3
[40] = test system: RPMI-8226
[41] = test system: RXF 393
[42] = test system: SF-268
[43] = test system: SF-295
[44] = test system: SF-539
[45] = test system: SK-MEL-28
[46] = test system: SK-MEL-2
[47] = test system: SK-MEL-5
[48] = test system: SK-OV-3
[49] = test system: SN12C
[50] = test system: SNB-19
[51] = test system: SNB-75
[52] = test system: SR
[53] = test system: SW-620
[54] = test system: T47D
[55] = test system: TK-10
[56] = test system: U-251
[57] = test system: UACC-257
[58] = test system: UACC-62
[59] = test system: UO-31

`NC(=O)N/N=C(/CC1C(=O)Oc2ccccc21)c1ccccc1O` (stereo not drawn) was tested, and the GI50 [1] was 33.4 µM (inactive), the GI50 [2] was 49.3 µM (inactive) and the GI50 [3] was > 100 µM (inactive). For the same compound, the GI50 [4] was 39.7 µM (inactive), the GI50 [5] was 24.2 µM (inactive) and the GI50 [6] was 49 µM (inactive). For the same compound, the GI50 [7] was 22.4 µM (inactive), the GI50 [8] was 98.2 µM (inactive) and the GI50 [9] was 50.1 µM (inactive). The GI50 [10] was 87.5 µM (inactive), the GI50 [11] was 35 µM (inactive) and the GI50 [12] was 29.6 µM (inactive). The GI50 [13] was 38.4 µM, the GI50 [14] was 19.6 µM (inactive) and the GI50 [15] was 29 µM (inactive). The GI50 [16] was 29.8 µM (inactive), the GI50 [17] was 69 µM (inactive) and the GI50 [18] was > 100 µM (inactive). For the same compound, the GI50 [19] was 36.6 µM (inactive), the GI50 [20] was 30.8 µM (inactive) and the GI50 [21] was 31.9 µM (inactive). The GI50 [22] was 20.4 µM (inactive), the GI50 [23] was > 100 µM (inactive) and the GI50 [24] was 48.1 µM (inactive). The GI50 [25] was > 100 µM (inactive), the GI50 [26] was 43.8 µM (inactive) and the GI50 [27] was 45.5 µM (inactive). The GI50 [28] was 20.2 µM (inactive), the GI50 [29] was > 100 µM (inactive) and the GI50 [30] was 24.4 µM (inactive). For the same compound, the GI50 [31] was 31.5 µM (inactive), the GI50 [32] was 39.4 µM (inactive) and the GI50 [33] was > 100 µM (inactive). The GI50 [34] was 25.9 µM (inactive), the GI50 [35] was 78.2 µM (inactive) and the GI50 [36] was 41.7 µM (inactive). The GI50 [37] was > 100 µM (inactive), the GI50 [38] was 28.6 µM (inactive) and the GI50 [39] was > 100 µM (inactive). The GI50 [40] was 14.1 µM (inactive), the GI50 [41] was 29.6 µM (inactive) and the GI50 [42] was > 100 µM (inactive). For the same compound, the GI50 [43] was 42.5 µM (inactive), the GI50 [44] was 25.6 µM (inactive) and the GI50 [45] was 48.3 µM (inactive). For the same compound, the GI50 [46] was > 100 µM (inactive), the GI50 [47] was 58.6 µM (inactive) and the GI50 [48] was 34.1 µM (inactive). The GI50 [49] was 83.6 µM (inactive), the GI50 [50] was 60 µM (inactive) and the GI50 [51] was 41.3 µM (inactive). For the same compound, the GI50 [52] was 18.9 µM (inactive), the GI50 [53] was 45.7 µM (inactive) and the GI50 [54] was 19.5 µM (inactive). The GI50 [55] was 53.8 µM (inactive), the GI50 [56] was 30.1 µM (inactive) and the GI50 [57] was 44.7 µM (inactive). For the same compound, the GI50 [58] was 19.1 µM (inactive) and the GI50 [59] was 41.1 µM (inactive).
In the case of `CC(=O)Nc1cc(C(=O)Nc2cc(C(=O)N3CC(CCl)c4c3cc(N)c3ccccc43)nn2C)nn1C` (stereo not drawn), the GI50 [1] is reported as 0.0893 µM (active), the GI50 [2] is reported as < 0.0115 µM (active) and the GI50 [3] is reported as 0.187 µM (active). For the same compound, the GI50 [4] was < 0.0148 µM (active), the GI50 [5] was 0.185 µM (active) and the GI50 [6] was < 0.0393 µM (active). For the same compound, the GI50 [7] was < 0.01 µM (active), the GI50 [8] was 0.112 µM (active) and the GI50 [9] was < 0.01 µM (active). The GI50 [10] was 0.159 µM (active), the GI50 [11] was 0.115 µM (active) and the GI50 [12] was 0.0187 µM (active). For the same compound, the GI50 [13] was 0.571 µM, the GI50 [14] was < 0.01 µM (active) and the GI50 [15] was 0.101 µM (active). For the same compound, the GI50 [16] was < 0.0218 µM (active), the GI50 [17] was 0.216 µM (active) and the GI50 [18] was 0.176 µM (active). For the same compound, the GI50 [19] was 0.0405 µM (active), the GI50 [20] was 0.0381 µM (active) and the GI50 [21] was 0.188 µM (active). For the same compound, the GI50 [22] was 0.0117 µM (active), the GI50 [23] was 0.286 µM (active) and the GI50 [24] was 0.168 µM (active). The GI50 [25] was 0.185 µM (active), the GI50 [26] was 0.138 µM (active) and the GI50 [27] was 0.133 µM (active). The GI50 [28] was < 0.0112 µM (active), the GI50 [29] was 0.115 µM (active) and the GI50 [30] was < 0.0232 µM (active). For the same compound, the GI50 [31] was < 0.0104 µM (active), the GI50 [32] was < 0.01 µM (active) and the GI50 [33] was < 0.01 µM (active). For the same compound, the GI50 [34] was 0.541 µM (active), the GI50 [35] was 0.23 µM (active) and the GI50 [36] was 0.171 µM (active). For the same compound, the GI50 [37] was 0.31 µM (active), the GI50 [38] was 0.0209 µM (active) and the GI50 [39] was 0.101 µM (active). The GI50 [40] was 0.188 µM (active), the GI50 [41] was 0.0115 µM (active) and the GI50 [42] was < 0.0132 µM (active). The GI50 [43] was 0.287 µM (active), the GI50 [44] was 0.0191 µM (active) and the GI50 [45] was 0.0782 µM (active). For the same compound, the GI50 [46] was 0.0731 µM (active), the GI50 [47] was 0.0178 µM (active) and the GI50 [48] was 0.0362 µM (active). The GI50 [49] was < 0.01 µM (active), the GI50 [50] was 0.127 µM (active) and the GI50 [51] was 0.0215 µM (active). For the same compound, the GI50 [52] was < 0.01 µM (active), the GI50 [53] was < 0.0383 µM (active) and the GI50 [54] was < 0.01 µM (active). The GI50 [55] was 0.251 µM (active), the GI50 [56] was 0.0194 µM (active) and the GI50 [57] was 0.186 µM (active). For the same compound, the GI50 [58] was < 0.0118 µM (active) and the GI50 [59] was 0.294 µM (active).
